The source of these data is ChEMBL document CHEMBL4196206, “Aturanosides A and B, Glycosylated Anthraquinones with Antiangiogenic Activity from a Soil-Derived Streptomyces Species” (J Nat Prod, 2018).

The subject of series [1] is HUVEC. Put plainly: Antiinvasive activity in HUVEC assessed as inhibition of VEGF-induced cell invasion by crystal violet staining based matrigel invasion chamber assay. It counts as functional. The note with it: Homo sapiens.
Series [2] concerns HUVEC. Put plainly: Down regulation of VE-cadherin expression in VEGF-stimulated HUVEC after 6 hrs by Western blot analysis. As to conditions: Homo sapiens. It counts as functional, cell-based. (In general: In western blotting, separated proteins are transferred to a membrane and probed.)
Series [3] has as its target Vascular endothelial growth factor receptor 2 (Homo sapiens) (UniProt P35968). Put plainly: Inhibition of VEGFR2 phosphorylation in VEGF-stimulated HUVEC after 6 hrs by Western blot analysis. It is filed as cell-based.
Series [4] deals with HUVEC. Put plainly: Antiangiogenic activity in HUVEC assessed as inhibition of VEGF-induced capillary tube formation by matrigel-based microscopic analysis. It is filed as functional, cell-based. The note with it: Homo sapiens.
Series [5] concerns the target Vascular endothelial growth factor receptor 2 (Homo sapiens) (UniProt P35968). The series is described as follows: Inhibition of VEGFR2 phosphorylation in VEGF-stimulated HUVEC at 10 to 50 uM after 6 hrs by Western blot analysis. It counts as cell-based.
In series [6] the test system is HUVEC. The series is described as follows: Antiinvasive activity in HUVEC assessed as inhibition of VEGF-induced cell invasion at 25 uM by crystal violet staining based matrigel invasion chamber assay. It is filed as functional. As to conditions: Homo sapiens.
The subject of series [7] is HUVEC. The series is described as follows: Cytotoxicity against VEGF-stimulated HUVEC at 100 uM after 24 hrs by EZ-Cytox cell viability assay. It counts as cell-based. The note with it: human.
The test system of series [8] is HUVEC. The series is described as follows: Down regulation of VE-cadherin expression in VEGF-stimulated HUVEC at 10 to 50 uM after 6 hrs by Western blot analysis. It is filed as functional, cell-based. The note with it: Homo sapiens.

Calls of active or inactive are those of the source. The rule behind the calls is not given here.

Chain of Vascular endothelial growth factor receptor 2 (Homo sapiens) (P35968 whole entry): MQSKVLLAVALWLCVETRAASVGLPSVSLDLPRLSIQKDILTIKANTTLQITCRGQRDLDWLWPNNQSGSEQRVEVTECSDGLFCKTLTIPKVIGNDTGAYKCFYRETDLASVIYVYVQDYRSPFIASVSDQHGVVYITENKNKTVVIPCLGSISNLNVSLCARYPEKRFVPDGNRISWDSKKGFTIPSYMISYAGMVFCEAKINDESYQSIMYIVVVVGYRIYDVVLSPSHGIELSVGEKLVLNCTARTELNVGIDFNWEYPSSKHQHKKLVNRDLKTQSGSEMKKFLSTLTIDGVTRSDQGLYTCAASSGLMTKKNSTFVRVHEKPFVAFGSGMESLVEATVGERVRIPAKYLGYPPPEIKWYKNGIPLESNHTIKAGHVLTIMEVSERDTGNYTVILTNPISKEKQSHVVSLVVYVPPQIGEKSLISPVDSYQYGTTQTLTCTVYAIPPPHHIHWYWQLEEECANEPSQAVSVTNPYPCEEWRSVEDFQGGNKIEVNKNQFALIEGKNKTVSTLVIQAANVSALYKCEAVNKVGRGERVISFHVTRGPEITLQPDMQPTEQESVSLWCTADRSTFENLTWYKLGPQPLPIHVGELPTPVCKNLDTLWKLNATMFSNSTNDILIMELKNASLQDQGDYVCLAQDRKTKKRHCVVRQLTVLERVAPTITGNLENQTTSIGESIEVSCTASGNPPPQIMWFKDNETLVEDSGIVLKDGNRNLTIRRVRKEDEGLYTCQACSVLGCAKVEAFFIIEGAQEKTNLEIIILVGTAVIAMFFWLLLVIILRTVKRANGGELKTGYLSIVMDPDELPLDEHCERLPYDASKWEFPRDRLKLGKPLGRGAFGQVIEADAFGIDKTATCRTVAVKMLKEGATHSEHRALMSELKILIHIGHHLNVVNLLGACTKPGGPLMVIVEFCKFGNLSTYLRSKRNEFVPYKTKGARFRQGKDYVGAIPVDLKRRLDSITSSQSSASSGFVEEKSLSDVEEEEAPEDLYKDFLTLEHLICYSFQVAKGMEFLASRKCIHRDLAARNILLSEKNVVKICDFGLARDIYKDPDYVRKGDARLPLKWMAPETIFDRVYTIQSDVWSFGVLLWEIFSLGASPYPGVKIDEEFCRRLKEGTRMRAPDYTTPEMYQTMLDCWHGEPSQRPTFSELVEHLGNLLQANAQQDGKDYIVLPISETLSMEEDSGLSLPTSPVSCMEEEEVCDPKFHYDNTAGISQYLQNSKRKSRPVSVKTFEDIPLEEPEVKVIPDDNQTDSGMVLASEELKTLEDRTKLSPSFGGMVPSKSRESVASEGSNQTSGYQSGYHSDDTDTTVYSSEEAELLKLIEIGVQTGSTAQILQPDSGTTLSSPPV

On to `CCCc1c(C(=O)O)c(O)cc2c1C(=O)c1c(O)cc(O)cc1C2=O`, for which the inhibition result (in the series with HUVEC [1]; in series [3]; in the series with HUVEC [4]) was “inactive” in each case. Further, in the series on HUVEC [2], the result was inactive.
Consider `CCCc1cc(O[C@@H]2O[C@@H](C)[C@H](O)[C@@H](O)[C@H]2O)cc2c1C(=O)c1c(O)cc(O)cc1C2=O`, for which the inhibition entry (in series [5]; in the series on HUVEC [6]) was “Active” each time. The Activity result in the series with HUVEC [7] was “Non-Toxic”. Further, the result in the series with HUVEC [8] was Active. Besides, the inhibition result in the series on HUVEC [4] was “Dose-dependent effect”.
Turning to `CCCc1cc(O[C@@H]2O[C@@H](C)[C@H](O)[C@@H](O)[C@H]2OC2O[C@H](CO)[C@@H](O)[C@H](O)[C@H]2NC(C)=O)cc2c1C(=O)c1c(O)cc(O)cc1C2=O` (some centres undefined), the inhibition entry (in series [5]; with HUVEC [6]) was “Active” in each case. Also, the Activity result in the series with HUVEC [7] is reported as “Non-Toxic”. In addition, the result with HUVEC [8] was Active. Besides, the inhibition result in the series on HUVEC [4] is “Dose-dependent effect”.
